Test results from patent publication US3955959A, “Herbicide for use in transplanted rice” (priority 1974, dated 1976).
Values joined by “and” are separate entries in the source; they are usually repeats but may differ in a detail not shown here. Identical values can stand only once.

How the values were obtained:
[1] = system: transplanted rice; experiment: Example 1 field test, rice injury; type: in vivo, rice (Watanabe variety)
From the text: In the field test 48 day-old seedlings (Watanabe variety) were transplanted to plots 2.5 × 6 m. seeded with the weed seeds indicated in Table 1. At 5 and 10 DAT periods, the herbicides were applied to the plants (now at the 1.2 and 2.0 leaf stage, respectively, of grass weed) at the indicated rate in kilograms per hectare (kg/ha). The weed control and rice injury results for 3 replications are reported in percentages as of the indicated times of observation. The percentages given in the "Perennials" column are based on the weight of the weeds at 63 DAT, i.e., 42 gms/3.6 m^2 for the weedy check.

[2] = system: transplanted rice (ordinary and infant seedlings); experiment: Example 5 field test, rice yield; type: in vivo; settings: in vivo
Description: (§1) In the tests described in the tables below, the herbicides were formulated and used in granular form in conventional manner. […] The commercial herbicide used was a granular product having 5% active ingredient.
(§2) In the field tests of the herbicide of this invention with transplanted rice, the rice seedlings were grown in conventional manner, by seeding the rice in a typical seedbed of sandy loam to clay soil of the country wherein the test was conducted. For laboratory and greenhouse work the seedlings were obtained by seeding rice in a mixture of soil, e.g., Ray silt loam, and peat in wood flats. For purposes of testing the herbicides on younger rice seedlings (infant or Dapog) the rice was usually allowed to grow for 6-15 days before lifting for transplanting. Older (ordinary) rice plants were usually grown for a period of about 2-3 weeks, or as much as about 7 weeks before lifting. Since the period of growth is dependent upon climatic conditions, a better measure of when to transplant the rice seedling is the leaf stage of growth; for infant or Dapog rice the seedling is lifted at the 1.5-2 leaf stage of growth, and for ordinary seedlings at the 2.5-5 leaf stage. The seedlings were then transplanted to the test plots for evaluation of the herbicide for injury against weed species present with the transplanted rice. The herbicides were then applied to the growth medium of the weeds and transplant rice, either preemergent or postemergent with respect to the weeds and postemergent with respect to the transplanted rice. Application times are designated in the tables as "DAT", meaning "days after transplant". Application rates given in the tables refer to the amount of active ingredient used.
(§3) The rice seedlings were grown to the 1.7 leaf stage for infant seedlings and to the 5.5 leaf stage for ordinary seedlings. Two days after puddling the soil in which the seedlings were to be transplanted, both infant and ordinary seedlings were transplanted into plots 8.5 m^2.
(§4) The weed symbol "Obw" represents "other broadleaf weeds" of unspecified identity. Results presented in Table 5 represent the average of 2 replications.

[3] = system: transplanted rice; experiment: Example 2 field test, rice yield; type: in vivo, rice (Tainan No. 5, japonica); settings: in vivo
Description: as §1, §2
(§5) Rice seedlings (ordinary) of Tainan No. 5 variety (japonica) were transplanted at 19 days of growth. Granular formulations of Herbicides A and B were applied at the 1 leaf stage of grass weed (4 DAT) and 2.5 leaf stage of grass weed (10 DAT). Observations were made at 63 DAT and results reported in Table 2 as an average of 3 replications.

[4] = system: Monochoria vaginalis; experiment: Example 2 field test, weed control, Chia Yi, Taiwan; type: in vivo; settings: obs. 63 DAT
Description: In the field tests of the herbicide of this invention with transplanted rice, the rice seedlings were grown in conventional manner, by seeding the rice in a typical seedbed of sandy loam to clay soil of the country wherein the test was conducted. For laboratory and greenhouse work the seedlings were obtained by seeding rice in a mixture of soil, e.g., Ray silt loam, and peat in wood flats. For purposes of testing the herbicides on younger rice seedlings (infant or Dapog) the rice was usually allowed to grow for 6-15 days before lifting for transplanting. Older (ordinary) rice plants were usually grown for a period of about 2-3 weeks, or as much as about 7 weeks before lifting. Since the period of growth is dependent upon climatic conditions, a better measure of when to transplant the rice seedling is the leaf stage of growth; for infant or Dapog rice the seedling is lifted at the 1.5-2 leaf stage of growth, and for ordinary seedlings at the 2.5-5 leaf stage. The seedlings were then transplanted to the test plots for evaluation of the herbicide for injury against weed species present with the transplanted rice. The herbicides were then applied to the growth medium of the weeds and transplant rice, either preemergent or postemergent with respect to the weeds and postemergent with respect to the transplanted rice. […] Application rates given in the tables refer to the amount of active ingredient used.

[5] = system: Broadleaf: Mv, Sz (Monochoria vaginalis, Sphenoclea zeylanica); experiment: Example 4 field test on ordinary rice, weed control, Munoz, Philippines; type: in vivo, Monochoria vaginalis and Sphenoclea zeylanica; settings: obs. 36 DAT
From the text: Treatments were replicated four times.

[6] = system: weeds in upland direct-seeded rice; experiment: Example 7 overall; type: in vivo; settings: direct-seeded rice cultures
Description: In a further comparative study of the preemergence activity of Herbicides A and B, a variety of weeds and upland direct-seeded rice were tested under greenhouse conditions. The present invention is not concerned with the use of Herbicide A in direct-seeded rice. The primary purpose of the experimental work in this example is to compare relative herbicidal activity of Herbicides A and B against the weeds shown in Table 7; most of these weeds were not available for tests with transplanted rice. Although the relative selectivity of these herbicides in upland rice is also evident, that aspect of the tests is more or less incidental to the purpose of this example.
In this example, rice seeds and seeds of the weeds shown in Table 7 were sown in Ray silt loam soil at a depth of 0.5 inch (1.27 cm) in containers for the soil in a greenhouse. Herbicides A and B were applied to the surface of the soil at a spray volume equivalent to 20 gals/acre (187.1 liters/hectare), followed by 0.5 in (1.27 cm) of overhead irrigation. Temperature and relative humidity in the greenhouse were on the order of 85°F (29°C) and 75%, respectively. Observations were made at 21-28 days after seeding. […]

[7] = system: Ann. Cyp (Cyperus spp); experiment: Example 5 field test, weed control, JAAPR, Japan
Description: as §1, §2, §3, §4

[8] = system: transplanted rice; experiment: Example 2 field test, crop injury; settings: obs. 63 DAT
Description: as §1, §2, §5

CCCCOCN(C(=O)CCl)c1c(C)cccc1C(C)(C)C [Herbicide A, n-(butoxymethyl)-6'-tert-butyl-2-chloro-o-acetotoluidide]
% Rice Injury ([1]; 5 DAT, 1.0 kg/ha, obs. 21 DAT): 5% | % Rice Injury ([1]; 5 DAT, 1.0 kg/ha, obs. 42 DAT): 0% | % Rice Injury ([1]; 5 DAT, 2.0 kg/ha, obs. 21 DAT): 10% | % Rice Injury ([1]; 5 DAT, 2.0 kg/ha, obs. 42 DAT): 0% | % Rice Injury ([1]; 5 DAT, .25 kg/ha, obs. 21 DAT): 0% | % Rice Injury ([1]; 5 DAT, .25 kg/ha, obs. 42 DAT): 0% | % Rice Injury ([1]; 5 DAT, .5 kg/ha, obs. 21 DAT): 0% | % Rice Injury ([1]; 5 DAT, .5 kg/ha, obs. 42 DAT): 0% | % Rice Injury ([1]; 10 DAT, 1.0 kg/ha, obs. 21 DAT): 0% | % Rice Injury ([1]; 10 DAT, 1.0 kg/ha, obs. 42 DAT): 0% | % Rice Injury ([1]; 10 DAT, 2.0 kg/ha, obs. 21 DAT): 10% | % Rice Injury ([1]; 10 DAT, 2.0 kg/ha, obs. 42 DAT): 0% | % Rice Injury ([1]; 10 DAT, .25 kg/ha, obs. 21 DAT): 0% | % Rice Injury ([1]; 10 DAT, .25 kg/ha, obs. 42 DAT): 0% | % Rice Injury ([1]; 10 DAT, .5 kg/ha, obs. 21 DAT): 0% | % Rice Injury ([1]; 10 DAT, .5 kg/ha, obs. 42 DAT): 0% | early season injury to rice ([1]; Example 1, outgrown): slight early season injury to rice was outgrown | Yield % of H.W.C. [2]: 97% and 95% and 96% and 98% and 99% and 102% | yields vs Herbicide B at 1.5 kg/ha 7 DAT [2]: essentially the same | Yield (% of H.W. Check) [3]: 97% and 105% and 107% and 81% and 91% and 100% and 73% | rice yield depression [3]: rice yield depression | % Weed Control (Monochoria Vaginalis) ([4]; 4 DAT, 1.0 kg/ha): 100% | % Weed Control (Monochoria Vaginalis) ([4]; 4 DAT, 2.0 kg/ha): 100% | % Weed Control (Monochoria Vaginalis) ([4]; 4 DAT, .25 kg/ha): 80% | % Weed Control (Monochoria Vaginalis) ([4]; 4 DAT, .5 kg/ha): 99% | % Weed Control (Monochoria Vaginalis) ([4]; 10 DAT, 1.0 kg/ha): 99% | % Weed Control (Monochoria Vaginalis) ([4]; 10 DAT, 2.0 kg/ha): 99% | % Weed Control (Monochoria Vaginalis) ([4]; 10 DAT, .25 kg/ha): 35% | % Weed Control (Monochoria Vaginalis) ([4]; 10 DAT, .5 kg/ha): 87% | % Weed control, Broadleaf (Mv,Sz) ([5]; 5 DAT, 1.0 kg/ha): 100% | % Weed control, Broadleaf (Mv,Sz) ([5]; 5 DAT, 2.0 kg/ha): 100% | % Weed control, Broadleaf (Mv,Sz) ([5]; 5 DAT, .25 kg/ha): 100% | % Weed control, Broadleaf (Mv,Sz) ([5]; 5 DAT, .5 kg/ha): 100% | % Weed control, Broadleaf (Mv,Sz) ([5]; 14 DAT, 1.0 kg/ha): 60% | % Weed control, Broadleaf (Mv,Sz) ([5]; 14 DAT, 2.0 kg/ha): 60% | % Weed control, Broadleaf (Mv,Sz) ([5]; 14 DAT, .25 kg/ha): 50% | % Weed control, Broadleaf (Mv,Sz) ([5]; 14 DAT, .5 kg/ha): 50% | activity vs Herbicide B in direct-seeded rice [6]: significantly more active | control of Ann. Cyp in words ([7]; 0.25 kg/ha both plots, 1.0 kg/ha ordinary): controlled completely | % Weed Control (Ann. Cyp) ([7]; 1.0 kg/ha, 15 DAT, infant seedlings): 100% | % Weed Control (Ann. Cyp) ([7]; 1.0 kg/ha, 15 DAT, ordinary seedlings): 100% | control of Ann. Cyp in words ([7]; 1.0 kg/ha, infant seedling plots): controlled | % Weed Control (Ann. Cyp) ([7]; .25 kg/ha, 2 DAT, infant seedlings): 100% | % Weed Control (Ann. Cyp) ([7]; .25 kg/ha, 2 DAT, ordinary seedlings): 100% | % Weed Control (Ann. Cyp) ([7]; .5 kg/ha, 7 DAT, infant seedlings): 75% | % Weed Control (Ann. Cyp) ([7]; .5 kg/ha, 7 DAT, ordinary seedlings): 80% | % Crop Injury, stand ([8]; 4 DAT, 1.0 kg/ha): 0% | % Crop Injury, vigor ([8]; 4 DAT, 1.0 kg/ha): 0% | % Crop Injury, stand ([8]; 4 DAT, 2.0 kg/ha): 5% | % Crop Injury, vigor ([8]; 4 DAT, 2.0 kg/ha): 27% | % Crop Injury, stand ([8]; 4 DAT, .25 kg/ha): 0% | % Crop Injury, vigor ([8]; 4 DAT, .25 kg/ha): 0% | % Crop Injury, stand ([8]; 4 DAT, .5 kg/ha): 0% | % Crop Injury, vigor ([8]; 4 DAT, .5 kg/ha): 0% | % Crop Injury, stand ([8]; 10 DAT, 1.0 kg/ha): 3% | % Crop Injury, vigor ([8]; 10 DAT, 1.0 kg/ha): 7% | % Crop Injury, stand ([8]; 10 DAT, 2.0 kg/ha): 15% | % Crop Injury, vigor ([8]; 10 DAT, 2.0 kg/ha): 25% | % Crop Injury, stand ([8]; 10 DAT, .25 kg/ha): 0% | % Crop Injury, vigor ([8]; 10 DAT, .25 kg/ha): 0% | % Crop Injury, stand ([8]; 10 DAT, .5 kg/ha): 0% | % Crop Injury, vigor ([8]; 10 DAT, .5 kg/ha): 2%
